Legend:
A-431 = test: Antiproliferative activity against human A-431 cells assessed as cell growth inhibition measured after 72 hrs by MTT assay; assay type: functional, cell-based; conditions: A-431, 72 h
PANC-1 = test: Antiproliferative activity against human PANC-1 cells assessed as cell growth inhibition measured after 72 hrs by MTT assay; assay type: functional, cell-based; conditions: PANC-1, 72 h
NCI-H1975 = test: Antiproliferative activity against human NCI-H1975 cells assessed as cell growth inhibition measured after 72 hrs by MTT assay; assay type: functional, cell-based; conditions: NCI-H1975, 72 h
L02 = test: Antiproliferative activity against human L02 cells assessed as cell growth inhibition measured after 72 hrs by MTT assay; assay type: functional, cell-based; conditions: L02, 72 h
A549 = test: Antiproliferative activity against human A549 cells assessed as cell growth inhibition measured after 72 hrs by MTT assay; assay type: functional, cell-based; conditions: A549, 72 h
HCT-116 = test: Antiproliferative activity against human HCT-116 cells assessed as cell growth inhibition measured after 72 hrs by MTT assay; assay type: functional, cell-based; conditions: HCT-116, 72 h
[1] = target: Cyclin-dependent kinase 2 (Homo sapiens, UniProt P24941)
Description: Inhibition of CDK2 (unknown origin)

[2] = target: Cyclin-dependent kinase 2/cyclin A (Homo sapiens, UniProt P24941); test: Inhibition of CDK2/cyclin A (unknown origin) incubated for 1 hr in presence of ATP by ADP-glo luminescent assay; assay type: protein-complex assay
Homo sapiens = organism: Homo sapiens; test: Selectivity index, ratio of IC50 for CDK2/cyclin A (unknown origin) to IC50 for CDK9/cyclin T1 (unknown origin)
CDK9/cyclin T1 = CDK9/cyclin T1 (Homo sapiens, UniProt P50750); test: Inhibition of CDK9/cyclin T1 (unknown origin) using as PDKtide substrate incubated for 1 hr in presence of ATP by ADP-glo luminescent assay; assay type: protein-complex assay
Sequence of CDK9/cyclin T1 (O60563 whole entry): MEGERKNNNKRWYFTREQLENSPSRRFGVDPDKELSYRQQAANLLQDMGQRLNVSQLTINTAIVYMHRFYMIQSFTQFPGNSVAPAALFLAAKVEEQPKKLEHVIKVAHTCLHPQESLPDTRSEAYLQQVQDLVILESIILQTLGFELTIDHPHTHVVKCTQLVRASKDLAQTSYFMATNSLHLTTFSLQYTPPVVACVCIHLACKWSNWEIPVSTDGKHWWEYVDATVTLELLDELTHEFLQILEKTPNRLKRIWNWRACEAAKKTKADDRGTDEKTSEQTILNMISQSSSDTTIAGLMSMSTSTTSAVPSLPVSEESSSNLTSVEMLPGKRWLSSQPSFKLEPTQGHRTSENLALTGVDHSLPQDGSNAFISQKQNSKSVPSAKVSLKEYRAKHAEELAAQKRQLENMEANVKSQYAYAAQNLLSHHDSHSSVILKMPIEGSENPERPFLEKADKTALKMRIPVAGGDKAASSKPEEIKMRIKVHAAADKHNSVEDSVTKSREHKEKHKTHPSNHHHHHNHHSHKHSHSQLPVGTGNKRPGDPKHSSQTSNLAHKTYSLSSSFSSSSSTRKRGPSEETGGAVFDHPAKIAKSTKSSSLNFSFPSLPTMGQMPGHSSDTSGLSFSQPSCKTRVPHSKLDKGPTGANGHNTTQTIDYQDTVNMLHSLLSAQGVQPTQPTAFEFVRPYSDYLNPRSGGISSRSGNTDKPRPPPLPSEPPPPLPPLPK
Sequence of CDK9/cyclin T1 (P50750 whole entry): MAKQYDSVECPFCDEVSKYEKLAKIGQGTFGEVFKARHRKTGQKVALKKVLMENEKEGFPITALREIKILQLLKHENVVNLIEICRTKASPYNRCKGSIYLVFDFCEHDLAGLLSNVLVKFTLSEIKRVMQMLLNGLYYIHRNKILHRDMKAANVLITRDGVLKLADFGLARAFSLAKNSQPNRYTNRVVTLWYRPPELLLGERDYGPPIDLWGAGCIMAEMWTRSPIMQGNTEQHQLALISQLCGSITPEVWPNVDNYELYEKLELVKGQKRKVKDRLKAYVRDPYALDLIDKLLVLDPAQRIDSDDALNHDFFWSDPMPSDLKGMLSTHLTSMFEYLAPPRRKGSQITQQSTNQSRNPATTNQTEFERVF

Structure (SMILES) | IC50 (A-431) [µM] | IC50 (PANC-1) [µM] | IC50 (NCI-H1975) [µM] | IC50 (L02) [µM] | IC50 (A549) [µM] | IC50 (HCT-116) [µM] | IC50 [1] [nM] | IC50 [2] [nM] | Selectivity Index (Homo sapiens) | IC50 (CDK9/cyclin T1) [nM]
CNCCNC(=O)c1ccc(Nc2nccc(-c3ccc(F)cc3OC)n2)cc1 | 6.7 | 9.41 | 9.61 | 22.7 | 10.1 | 16.3 |  |  |  | 
COc1cc(F)ccc1-c1ccnc(NC(=O)[C@H]2CCC[C@@H](NC(C)=O)C2)c1 |  |  |  |  |  |  | 2460 |  |  | 
COc1ccccc1-c1cc(Nc2cccc(CS(N)(=O)=O)c2)ncn1 |  |  |  |  |  |  | > 2000 |  |  | 
O=C(NCCCN1CCOCC1)c1ccc(Nc2nccc(-c3ccc(F)cc3OCc3ccccc3)n2)cc1 | 2.52 | 2 | 2.71 | 14.5 | 4.04 | 2.75 |  |  |  | 
COc1cc(F)ccc1-c1ncnc(Nc2cccc(C[S@](C)(=N)=O)c2)n1 [ATUVECICLIB] | 0.34 | 0.11 | 0.72 | 2.55 |  | 0.26 |  |  |  | 
COc1cc(F)ccc1-c1ccnc(Nc2ccc(C(=O)NCCN(C)C)cc2)n1 | 3.69 | 4.58 | 2.17 | 20.6 | 4.67 | 12.5 |  |  |  | 
O=C(NCCF)c1ccc(Nc2nccc(-c3ccc(F)cc3OCc3ccccc3)n2)cc1 | 37.1 | 52.5 | 28.5 | 35.4 |  | 17.6 |  |  |  | 
O=C(NCCO)c1ccc(Nc2nccc(-c3ccc(F)cc3OCc3ccccc3)n2)cc1 | 6.33 | 7.19 | 19 | 23.3 | 17.7 | 15.3 |  |  |  | 
O=C(O)c1ccc(Nc2nccc(-c3ccc(F)cc3OCc3ccccc3)n2)cc1 | 7.28 | 12.7 | 8.35 | 22.2 |  | 9.69 |  | 636 | 7.4 | 86.2

Source: ChEMBL document CHEMBL5247634, “Design, synthesis and anticancer evaluation of selective 2,4-disubstituted pyrimidine CDK9 inhibitors” (Eur J Med Chem, 2022)
